Results taken from patent US20250262201A1, “COMPOUNDS AND METHODS USEFUL FOR STABILIZING PHENYLALANINE HYDROXYLASE MUTATIONS” (Agios Pharmaceuticals, Inc., priority 2022, published 2025).
Where a name gives a salt, the structure may show the parent alone. Read-outs that look alike come from different tables or passages of the source.

Target: T1, human PAH with the R408W mutation (Homo sapiens, UniProt P00439, R408W)
T1 construct: expressed in transfected cells
T1 sequence (P00439 1-452 R408W): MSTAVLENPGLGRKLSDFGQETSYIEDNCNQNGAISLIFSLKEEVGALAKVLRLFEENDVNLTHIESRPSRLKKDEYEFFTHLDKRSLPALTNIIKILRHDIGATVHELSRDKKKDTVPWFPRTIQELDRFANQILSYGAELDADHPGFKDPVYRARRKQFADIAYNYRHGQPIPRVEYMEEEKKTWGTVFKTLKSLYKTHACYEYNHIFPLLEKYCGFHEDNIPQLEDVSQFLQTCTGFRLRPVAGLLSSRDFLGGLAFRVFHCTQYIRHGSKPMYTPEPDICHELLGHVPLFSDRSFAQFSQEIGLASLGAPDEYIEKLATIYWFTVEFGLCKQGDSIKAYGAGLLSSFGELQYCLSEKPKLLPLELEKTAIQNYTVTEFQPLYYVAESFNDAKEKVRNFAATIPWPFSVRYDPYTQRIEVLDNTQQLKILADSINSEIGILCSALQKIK
Assay: Cell Based Phenylalanine Flux Assay
Design: scale not given here
Details: 13C-Tyrosine by LC-MS, average where tested multiple times

[1] = A375 R408W cells, 24 hrs with compound, then 20 μM sepiapterin and 800 μM 13C9,15N-Phenylalanine for 4 hours
[2] = A375 R408W cells, 24 hrs with compound, then 20 μM sepiapterin and 800 μM 13C9,15N-Phenylalanine for 4 hours, read-out: AC50
[3] = A375 cells expressing human R408W PAH, 24 hrs compound incubation, read-out: AC50

| SMILES | AC50 [3] | also measured |
| --- | --- | --- |
| CC1CN(C(=O)c2nnc(N3CCN(C)CC3)o2)C(c2cc3ccccc3cn2)c2nc[nH]c21 [(4S, 7R) diastereomer of 3-[7-methyl-5-[5-(4-methylpiperazin] | – | AC50 [1]: E, E |
| COCCNc1nnc(C(=O)N2CC(C)c3[nH]cnc3C2c2cc3ccccc3cn2)o1 [(4S, 7R) diastereomer of 5-[4-(isoquinolin-3-yl)-7-methyl-1H] | – | AC50 [1]: E, E |
| CC1CN(C(=O)c2oc(C(C)(C)O)nc2C(F)(F)F)C(c2cc3ccccc3cn2)c2nc[nH]c21 [(4S, 7R) diastereomer of (2-(2-hydroxypropan-2-yl)-4-(triflu] | – | AC50 [1]: E, E |
| CC1CN(C(=O)c2oc(-c3ccccn3)nc2C(F)(F)F)C(c2cc3ccccc3cn2)c2nc[nH]c21 [(4S, 7R) diastereomer of (4-(isoquinolin-3-yl)-7-methyl-6,7-] | – | AC50 [1]: E, E |
| CC1CN(C(=O)c2nnc(C(C)(C)O)o2)C(c2cc3ccccc3cn2)c2nc[nH]c21 [(4S, 7S) diastereomer of 2-{5-[4-(isoquinolin-3-yl)-7-methyl] | – | AC50 [1]: E, E |
| CC1CN(C(=O)c2nnc(N3CC(F)C3)o2)C(c2cc3ccccc3cn2)c2nc[nH]c21 [(4S, 7S) diastereomer of 3-[5-[5-(3-fluoroazetidin-1-yl)-1,3] | – | AC50 [2]: > 5 µM |
| COCc1ccc2c(C(=O)N3CC(C)c4[nH]cnc4C3c3cc4ccccc4cn3)cnn2c1 [(4S, 7S) diastereomer of 3-[5-[6-(methoxymethyl)pyrazolo[1,5] | – | AC50 [2]: 1 to 5 µM |
| Cc1ncoc1C(=O)N1CC(C)c2[nH]cnc2C1c1cc2ccccc2cn1 [(4S, 7S) diastereomer of 3-[7-methyl-5-(4-methyl-1,3-oxazole] | – | AC50 [1]: E, E |
| Cc1nnc(C(=O)N2CC(C)c3[nH]cnc3C2c2cc3ccccc3cn2)o1 [(4S, 7S) diastereomer of 3-[7-methyl-5-(5-methyl-1,3,4-oxadi] | – | AC50 [1]: E, E |
| CC1CN(C(=O)c2nnc(N3CCN(C)CC3)o2)C(c2cc3ccccc3cn2)c2nc[nH]c21 [(4S, 7S) diastereomer of 3-[7-methyl-5-[5-(4-methylpiperazin] | – | AC50 [1]: E, E |
| COCCNc1nnc(C(=O)N2CC(C)c3[nH]cnc3C2c2cc3ccccc3cn2)o1 [(4S, 7S) diastereomer of 5-[4-(isoquinolin-3-yl)-7-methyl-1H] | – | AC50 [1]: E, E |
| CC1CN(C(=O)c2oc(C(C)(C)O)nc2C(F)(F)F)C(c2cc3ccccc3cn2)c2nc[nH]c21 [(4S, 7S) diastereomer of (2-(2-hydroxypropan-2-yl)-4-(triflu] | – | AC50 [1]: E, E |
| CC1CN(C(=O)c2oc(-c3ccccn3)nc2C(F)(F)F)C(c2cc3ccccc3cn2)c2nc[nH]c21 [(4S, 7S) diastereomer of (4-(isoquinolin-3-yl)-7-methyl-6,7-] | – | AC50 [1]: E, E |
| O=C(c1nnc(-c2ccc(F)cc2)o1)N1CCc2[nH]cnc2[C@@H]1c1ccc2ccccc2n1 [Example 12] | > 5 µM | – |
| Cc1nc(C(C)(C)O)oc1C(=O)N1CCc2[nH]cnc2[C@H]1c1ccc2ccccc2n1 [Example 13] | 1 to 5 µM | – |
| O=C(c1nnc(-c2c(F)cccc2F)o1)N1CCc2[nH]cnc2[C@@H]1c1ccc2ccccc2n1 [Example 24] | > 5 µM | – |
| Cc1nc(-c2cnn(C)c2)oc1C(=O)N1CCc2[nH]cnc2[C@H]1c1ccc2ccccc2n1 [Example 26] | < 0.5 µM | – |
| O=C(c1oc(-c2ccccn2)nc1C(F)F)N1CCc2[nH]cnc2[C@@H]1c1ccc2ccccc2n1 [Example 66] | 1 to 5 µM | – |
| Cn1ncnc1C(=O)N1CCc2[nH]cnc2[C@@H]1c1ccc2ccccc2n1 [Example 79] | > 5 µM | – |
| Cn1cc(C(=O)N2CCc3[nH]cnc3[C@@H]2c2ccc3ccccc3n2)c(Cl)n1 [Example 87] | 1 to 5 µM | – |
| O=C(c1nnc(-c2ccn(C(F)F)n2)o1)N1CCc2[nH]cnc2[C@H]1c1ccc2ccccc2n1 [Example 96] | 0.5 to 1 µM | – |
| COCc1ccc2c(C(=O)N3CCc4[nH]cnc4[C@H]3c3ncc4ccccc4n3)cnn2c1 [Example 153] | 0.5 to 1 µM | – |
| COCc1ccc2c(C(=O)N3CCc4[nH]cnc4[C@@H]3c3ncc4ccccc4n3)cnn2c1 [Example 154, (R)-(6-(methoxymethyl)pyrazolo[1,5-a]pyridin-3-yl)(4-(quinazolin-2-yl)-6,7-dihydro-1H-imidazo[4,5-c]pyridin-5(4H)-yl)methanone] | > 5 µM | – |

Second part, led by results:

| AC50 [3] | SMILES | also measured |
| --- | --- | --- |
| 0.5 to 1 µM | O=C(c1nnc(C2CC2)o1)N1CCc2[nH]cnc2[C@H]1c1ncc2ccccc2n1 [Example 139, (S)-(5-cyclopropyl-1,3,4-oxadiazol-2-yl)(4-(quinazolin-2-yl)-6,7-dihydro-1H-imidazo[4,5-c]pyridin-5(4H)-yl)methanone] | – |
| > 5 µM | O=C(c1nnc(C2CC2)o1)N1CCc2[nH]cnc2[C@@H]1c1ncc2ccccc2n1 [Example 140, (R)-(5-cyclopropyl-1,3,4-oxadiazol-2-yl)(4-(quinazolin-2-yl)-6,7-dihydro-1H-imidazo[4,5-c]pyridin-5(4H)-yl)methanone] | – |
| < 0.5 µM | Cc1nc(C(C)(C)O)oc1C(=O)N1CCc2[nH]cnc2[C@H]1c1ncc2ccccc2n1 [Example 141, (S)-(2-(2-hydroxypropan-2-yl)-4-methyloxazol-5-yl)(4-(quinazolin-2-yl)-6,7-dihydro-1H-imidazo[4,5-c]pyridin-5(4H)-yl)methanone hydrochloride] | – |
| > 5 µM | Cc1nc(C(C)(C)O)oc1C(=O)N1CCc2[nH]cnc2[C@@H]1c1ncc2ccccc2n1 [Example 142, (R)-(2-(2-hydroxypropan-2-yl)-4-methyloxazol-5-yl)(4-(quinazolin-2-yl)-6,7-dihydro-1H-imidazo[4,5-c]pyridin-5(4H)-yl)methanone hydrochloride] | – |
| 0.5 to 1 µM | Cn1cc(-c2nnc(C(=O)N3CCc4[nH]cnc4[C@H]3c3ncc4ccccc4n3)o2)cn1 [Example 143, (S)-(5-(1-methyl-1H-pyrazol-4-yl)-1,3,4-oxadiazol-2-yl)(4-(quinazolin-2-yl)-6,7-dihydro-1H-imidazo[4,5-c]pyridin-5(4H)-yl)methanone] | – |
| > 5 µM | Cn1cc(-c2nnc(C(=O)N3CCc4[nH]cnc4[C@@H]3c3ncc4ccccc4n3)o2)cn1 [Example 144, (R)-(5-(1-methyl-1H-pyrazol-4-yl)-1,3,4-oxadiazol-2-yl)(4-(quinazolin-2-yl)-6,7-dihydro-1H-imidazo[4,5-c]pyridin-5(4H)-yl)methanone] | – |
| < 0.5 µM | O=C(c1nnc(-c2ccccn2)o1)N1CCc2[nH]cnc2[C@H]1c1ncc2ccccc2n1 [Example 145, (S)-(5-(pyridin-2-yl)-1,3,4-oxadiazol-2-yl)(4-(quinazolin-2-yl)-6,7-dihydro-1H-imidazo[4,5-c]pyridin-5(4H)-yl)methanone] | – |
| 1 to 5 µM | O=C(c1nnc(-c2ccccn2)o1)N1CCc2[nH]cnc2[C@@H]1c1ncc2ccccc2n1 [Example 146, (R)-(5-(pyridin-2-yl)-1,3,4-oxadiazol-2-yl)(4-(quinazolin-2-yl)-6,7-dihydro-1H-imidazo[4,5-c]pyridin-5(4H)-yl)methanone] | – |
| < 0.5 µM | N#Cc1ncoc1C(=O)N1CCc2[nH]cnc2[C@H]1c1ncc2ccccc2n1 [Example 147, (S)-5-(4-(quinazolin-2-yl)-4,5,6,7-tetrahydro-1H-imidazo[4,5-c]pyridine-5-carbonyl)oxazole-4-carbonitrile] | – |
| 1 to 5 µM | N#Cc1ncoc1C(=O)N1CCc2[nH]cnc2[C@@H]1c1ncc2ccccc2n1 [Example 148, (R)-5-(4-(quinazolin-2-yl)-4,5,6,7-tetrahydro-1H-imidazo[4,5-c]pyridine-5-carbonyl)oxazole-4-carbonitrile] | – |
| < 0.5 µM | O=C(c1cnco1)N1CCc2[nH]cnc2[C@H]1c1ncc2ccccc2n1 [Example 149, (S)-oxazol-5-yl(4-(quinazolin-2-yl)-6,7-dihydro-1H-imidazo[4,5-c]pyridin-5(4H)-yl)methanone] | – |
| > 5 µM | O=C(c1cnco1)N1CCc2[nH]cnc2[C@@H]1c1ncc2ccccc2n1 [Example 150, (R)-oxazol-5-yl(4-(quinazolin-2-yl)-6,7-dihydro-1H-imidazo[4,5-c]pyridin-5(4H)-yl)methanone] | – |
| 0.5 to 1 µM | O=C(c1nnc(C2CC(F)(F)C2)o1)N1CCc2[nH]cnc2[C@H]1c1ncc2ccccc2n1 [Example 151, (S)-(5-(3,3-difluorocyclobutyl)-1,3,4-oxadiazol-2-yl)(4-(quinazolin-2-yl)-6,7-dihydro-1H-imidazo[4,5-c]pyridin-5(4H)-yl)methanone] | – |
| > 5 µM | O=C(c1nnc(C2CC(F)(F)C2)o1)N1CCc2[nH]cnc2[C@@H]1c1ncc2ccccc2n1 [Example 152, (R)-(5-(3,3-difluorocyclobutyl)-1,3,4-oxadiazol-2-yl)(4-(quinazolin-2-yl)-6,7-dihydro-1H-imidazo[4,5-c]pyridin-5(4H)-yl)methanone] | – |
| 0.5 to 1 µM | CN(C)Cc1ccc2c(C(=O)N3CCc4[nH]cnc4[C@H]3c3ncc4ccccc4n3)cnn2c1 [Example 155, (S)-(6-((dimethylamino)methyl)pyrazolo[1,5-a]pyridin-3-yl)(4-(quinazolin-2-yl)-6,7-dihydro-1H-imidazo[4,5-c]pyridin-5(4H)-yl)methanone] | – |
